Results on 16 molecules are retold here after patent US20250074897A1, “PYRIDAZINONES AS PARP7 INHIBITORS” (Ribon Therapeutics, Inc., priority 2019, published 2025).

In the assay the target is T1, PARP7 (TIPARP) (Homo sapiens, UniProt Q7Z3E1).
T1 sequence (Q7Z3E1 1-657): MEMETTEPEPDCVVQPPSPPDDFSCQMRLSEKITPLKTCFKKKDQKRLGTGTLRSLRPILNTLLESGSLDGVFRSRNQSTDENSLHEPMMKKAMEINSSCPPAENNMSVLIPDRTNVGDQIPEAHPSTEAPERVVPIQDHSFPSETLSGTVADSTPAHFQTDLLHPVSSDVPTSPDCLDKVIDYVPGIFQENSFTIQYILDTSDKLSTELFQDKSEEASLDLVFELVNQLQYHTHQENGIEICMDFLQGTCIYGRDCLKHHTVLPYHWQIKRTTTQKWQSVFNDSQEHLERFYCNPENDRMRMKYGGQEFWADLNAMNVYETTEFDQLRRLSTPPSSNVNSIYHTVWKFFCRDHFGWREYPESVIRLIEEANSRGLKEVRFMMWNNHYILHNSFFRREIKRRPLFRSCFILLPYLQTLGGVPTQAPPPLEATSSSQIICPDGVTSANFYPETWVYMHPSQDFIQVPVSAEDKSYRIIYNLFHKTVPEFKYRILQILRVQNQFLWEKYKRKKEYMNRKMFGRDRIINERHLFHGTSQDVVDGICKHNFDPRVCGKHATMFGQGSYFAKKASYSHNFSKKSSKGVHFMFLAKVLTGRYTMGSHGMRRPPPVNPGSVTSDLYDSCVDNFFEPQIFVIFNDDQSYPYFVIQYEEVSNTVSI
As to the kind of experiment: Enzymatic assay for inhibition of PARP7: TR-FRET displacement of biotinylated Probe A from the TIPARP active site. Type of assay: binding. The settings on record: 6 nM TIPARP, 2 nM Probe A, 25° C., 30 min incubation with test compound. Here is the method: Enzymatic Assay for Inhibition of PARP7
Displacement of Probe A, a biotinylated probe binding to the TIPARP active site, was measured using a time-resolved fluorescence energy transfer (TR-FRET) assay. 20 nL of a dose response curve of each test compound was spotted in black 384-well polystyrene proxiplates (Perkin Elmer) using a Mosquito (TTP Labtech). Reactions were performed in a 8 μL volume by adding 6 μL of TIPARP and Probe A in assay buffer (20 mM HEPES pH=8, 100 mM NaCl, 0.1% bovine serum albumin, 2 mM DTT and 0.002% Tween20), incubating with test compound at 25° C. for 30 min, then adding 2 μL of ULight-anti 6xHis and LANCE Eu-W1024 labeled streptavidin (Perkin Elmer). The final concentrations of TIPARP and Probe A were 6 nM and 2 nM, respectively. The final concentration of ULight-anti 6xHis and LANCE Eu-W1024 labeled streptavidin were 4 nM and 0.25 nM, respectively. Reactions were incubated at 25° C. for an additional 30 min, then read on an Envision platereader equipped with a LANCE/DELFIA top mirror (Perkin Elmer) using excitation of 320 nm and emission of 615 nm and […] with a 90 μs delay. The ratio of the 665/615 nm emission were calculated for each well to determine the amount of complex of TIPARP and Probe A in each well. Control wells containing a negative control of 0.25% DMSO vehicle or a positive control of 100 μM 5-(5-(piperidin-4-yloxy)isoindolin-2-yl)-4-(trifluoromethyl)pyridazin-3(2H)-one were used to calculate the % inhibition as described below:
where TRFempd is the TR-FRET ratio from the compound treated well, TRFmin is the TR-FRET ratio from the 5-(5-(piperidin-4-yloxy)isoindolin-2-yl)-4-(trifluoromethyl)pyridazin-3(2H)-one-treated positive control well and TRFmax is the TR-FRET ratio from the DMSO-treated negative control well.
The % inhibition values were plotted as a function of compound concentration and the following 4-parameter fit was applied to derive the IC50 values:
where top and bottom are normally allowed to float, but may be fixed at 100 or 0 respectively in a 3-parameter fit. The Hill Coefficient is normally allowed to float but may also be fixed at 1 in a 3-parameter fit. Y is the % inhibition and X is the compound concentration.
For `C[C@@H](COC[C@@H](O)C(=O)N1CCN(c2ncc(C(F)(F)F)cn2)CC1)Nc1cn[nH]c(=O)c1C(F)(F)F` (single isomer, unassigned) [Example 1A], the IC50 is < 0.1 µM.

With `C[C@@H](COC[C@H](O)C(=O)N1CCN(c2ncc(C(F)(F)F)cn2)CC1)Nc1cn[nH]c(=O)c1C(F)(F)F` (single isomer, unassigned) [Example 1B], the IC50 was < 0.1 µM.

Regarding `C[C@@H](COC[C@@H](O)C(=O)N1CCN(c2ncc(Cl)cn2)CC1)Nc1cn[nH]c(=O)c1C(F)(F)F` (single isomer, unassigned) [Example 6A], the IC50 was < 0.1 µM.

Regarding `C[C@@H](COC[C@H](O)C(=O)N1CCN(c2ncc(Cl)cn2)CC1)Nc1cn[nH]c(=O)c1C(F)(F)F` (single isomer, unassigned) [Example 6B], the IC50 was < 0.1 µM.

As to `C[C@@H](COC[C@@H](O)C(=O)N1CCN(c2ncc(C(F)(F)F)cn2)CC1)Oc1cn[nH]c(=O)c1C(F)(F)F` (single isomer, unassigned) [Example 7A], the IC50 is < 0.1 µM.

As for `C[C@@H](COC[C@H](O)C(=O)N1CCN(c2ncc(C(F)(F)F)cn2)CC1)Oc1cn[nH]c(=O)c1C(F)(F)F` (single isomer, unassigned) [Example 7B], the IC50 is < 0.1 µM.

Consider `C[C@@H](COC[C@@H](O)C(=O)N1CCN(c2ncc(C(F)(F)F)cn2)CC1)Oc1cn[nH]c(=O)c1Br` (single isomer, unassigned) [Example 12A], for which the IC50 was < 0.1 µM.

In the case of `C[C@@H](COC[C@H](O)C(=O)N1CCN(c2ncc(C(F)(F)F)cn2)CC1)Oc1cn[nH]c(=O)c1Br` (single isomer, unassigned) [Example 12B], the IC50 is < 0.1 µM.

Take `[2H]C1([2H])N(C(=O)[C@H](O)COC[C@H](C)Nc2cn[nH]c(=O)c2C(F)(F)F)C([2H])([2H])C([2H])([2H])N(c2ncc(C(F)(F)F)cn2)C1([2H])[2H]` (single isomer, unassigned) [Example 13A]: the IC50 is < 0.1 µM.

Take `[2H]C1([2H])N(C(=O)[C@@H](O)COC[C@H](C)Nc2cn[nH]c(=O)c2C(F)(F)F)C([2H])([2H])C([2H])([2H])N(c2ncc(C(F)(F)F)cn2)C1([2H])[2H]` (single isomer, unassigned) [Example 13B]: the IC50 was < 0.1 µM.

Regarding `O=C([C@H](O)COC[C@@H]1c2ccccc2CN1c1cn[nH]c(=O)c1C(F)(F)F)N1CCN(c2ncc(C(F)(F)F)cn2)CC1` (single isomer, unassigned) [Example 17A], the IC50 was < 0.1 µM.

As for `O=C([C@H](O)COC[C@H]1c2ccccc2CN1c1cn[nH]c(=O)c1C(F)(F)F)N1CCN(c2ncc(C(F)(F)F)cn2)CC1` (single isomer, unassigned) [Example 17B], the IC50 is < 0.1 µM.

Consider `O=C([C@@H](O)COC[C@@H]1c2ccccc2CN1c1cn[nH]c(=O)c1C(F)(F)F)N1CCN(c2ncc(C(F)(F)F)cn2)CC1` (single isomer, unassigned) [Example 17C], for which the IC50 was < 0.1 µM.

As for `O=C([C@@H](O)COC[C@H]1c2ccccc2CN1c1cn[nH]c(=O)c1C(F)(F)F)N1CCN(c2ncc(C(F)(F)F)cn2)CC1` (single isomer, unassigned) [Example 17D], the IC50 is < 0.1 µM.

In the case of `C[C@@H](COC[C@@H](O)C(=O)N1CCN(c2cnc(C(F)(F)F)cn2)CC1)Nc1cn[nH]c(=O)c1C(F)(F)F` [Example 2A, 5-(((S)-1-((R)-2-hydroxy-3-oxo-3-(4-(5-(trifluoromethyl)pyrazin-2-yl)piperazin-1-yl)propoxy)propan-2-yl)amino)-4-(trifluoromethyl)pyridazin-3(2H)-one], the IC50 is < 0.1 µM.

With `C[C@@H](COC[C@H](O)C(=O)N1CCN(c2cnc(C(F)(F)F)cn2)CC1)Nc1cn[nH]c(=O)c1C(F)(F)F` [Example 2B, 5-(((S)-1-((S)-2-hydroxy-3-oxo-3-(4-(5-(trifluoromethyl)pyrazin-2-yl)piperazin-1-yl)propoxy)propan-2-yl)amino)-4-(trifluoromethyl)pyridazin-3(2H)-one], the IC50 is < 0.1 µM.

What is called IC50 is the midpoint of a concentration-inhibition curve. Low values mean greater potency in that assay, high ones weaker potency in that assay.
